The NIST ThermoML archive (doi:10.1016/j.jct.2018.12.013)
Numbers after ± are expanded uncertainties.

Conditions: Liquid, Gas chromatography

C=CC(=C)CCC=C(C)C [2-methyl-6-methylene-2,7-octadiene]
Conditions | vapor or sublimation pressure [kPa]
287.7 K | 0.1 ± 0.01
297.15 K | 0.21 ± 0.021
298.15 K | 0.22 ± 0.043
313.2 K | 0.57 ± 0.13
320.4 K | 0.87 ± 0.17
323.2 K | 1 ± 0.21
328.2 K | 1.3 ± 0.22
330 K | 1.5 ± 0.23
333.3 K | 1.8 ± 0.42
338.2 K | 2.3 ± 0.43
340.2 K | 2.5 ± 0.44
343.5 K | 2.9 ± 0.45
348.2 K | 3.7 ± 0.66
353.2 K | 4.6 ± 0.68
353.4 K | 4.6 ± 0.68
355.8 K | 5.2 ± 0.7
358.2 K | 5.7 ± 0.9
360 K | 6.2 ± 0.91
363.3 K | 7.1 ± 0.94
365.8 K | 7.9 ± 0.98
366.2 K | 8 ± 0.98
370 K | 9.4 ± 1.2
371.9 K | 10 ± 1.2
379.2 K | 13 ± 1.5
385 K | 17 ± 1.8
390 K | 20 ± 2.1
399.2 K | 27 ± 2.9
410 K | 38 ± 4.3
418.2 K | 49 ± 6.1
421.5 K | 54 ± 5.4
428.2 K | 65 ± 6.5
433.5 K | 76 ± 7.6
439.1 K | 90 ± 9
444.7 K | 101 ± 10

CC1(C)C2=CCCC(C)(C)[C@]23CC[C@H]1C3 [(-)-isolongifolene]
Conditions | vapor or sublimation pressure [kPa]
298.15 K | 0.0043 ± 0.0026
310 K | 0.011 ± 0.006
320 K | 0.023 ± 0.013
330 K | 0.046 ± 0.024
340 K | 0.086 ± 0.042
350 K | 0.16 ± 0.071
360 K | 0.27 ± 0.11
370 K | 0.46 ± 0.16
378.2 K | 0.69 ± 0.21
380.2 K | 0.76 ± 0.23
386.2 K | 1 ± 0.27
388.2 K | 1.1 ± 0.29
392.2 K | 1.3 ± 0.31
393.2 K | 1.4 ± 0.34
395 K | 1.5 ± 0.34
400 K | 1.8 ± 0.38
410 K | 2.8 ± 0.5
419.2 K | 4 ± 0.63
424.2 K | 4.8 ± 0.71
430 K | 6 ± 0.84
440 K | 8.5 ± 1.1
450 K | 11.8 ± 1.5
460 K | 16 ± 1.6
470 K | 22 ± 2.2
480 K | 29 ± 2.9
490 K | 38 ± 3.8
500 K | 50 ± 5
510 K | 63.88 ± 6.4
520 K | 81 ± 8.1
527 K | 95.41 ± 9.5
528.2 K | 100 ± 10
529.6 K | 101 ± 10
